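Tested at 5 concentrations; 48 h exposure; 96-well plates; endpoints linearly interpolated, else capped at highest concentration. The concentration for 50% growth inhibition is given as GI50.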 Active and inactive are the calls of the source. Cut-off read from the data, not from the text of the source: active = GI50 up to about 1.1 µM and inactive = higher.
Columns and labels:
Experiment in all cases: NCI anticancer screen, dose series, 48 h
TK-10 = test system: TK-10
ACHN = test system: ACHN
SW-620 = test system: SW-620
IGROV-1 = test system: IGROV-1
DLD-1 = test system: DLD-1
SF-539 = test system: SF-539
786-0 = test system: 786-0
A549 = test system: A549
OVCAR-4 = test system: OVCAR-4
OVCAR-5 = test system: OVCAR-5
LOX IMVI = test system: LOX IMVI
M19-MEL = test system: M19-MEL
UO-31 = test system: UO-31
CCRF-CEM = test system: CCRF-CEM
SK-OV-3 = test system: SK-OV-3

Measured: GI50

C/C(CCn1[nH]c(=O)ccc1=O)=N\N=C(N)N
inactive: TK-10 > 100 µM | ACHN > 100 µM | SW-620 > 100 µM | IGROV-1 > 100 µM | DLD-1 > 100 µM | SF-539 > 100 µM | 786-0 > 100 µM | A549 > 100 µM | OVCAR-4 > 100 µM | OVCAR-5 > 100 µM | LOX IMVI > 100 µM | M19-MEL > 100 µM | UO-31 > 100 µM | CCRF-CEM > 100 µM

OCC(O)CNc1ccnc2cc(Cl)ccc12 (configuration not stated)
inactive: TK-10 > 100 µM | ACHN > 100 µM | SW-620 > 100 µM | IGROV-1 > 100 µM | DLD-1 > 100 µM | SF-539 > 100 µM | 786-0 > 100 µM | SK-OV-3 > 100 µM | A549 > 100 µM | OVCAR-4 > 100 µM | OVCAR-5 > 100 µM | LOX IMVI > 100 µM | M19-MEL > 100 µM | UO-31 > 100 µM | CCRF-CEM > 100 µM

CC(C)CCCC(C)C1CCC2C3CC([N+](=O)[O-])=C4CC(O)CCC4(C)C3CCC12C (configuration not stated)
inactive: TK-10 21 µM | ACHN 43.4 µM | SW-620 25.9 µM | IGROV-1 23.8 µM | DLD-1 19 µM | SF-539 11.5 µM | 786-0 16.9 µM | A549 23.2 µM | OVCAR-4 21.4 µM | LOX IMVI 19.6 µM | M19-MEL 27.6 µM | CCRF-CEM 18.2 µM

COc1cc(C=O)c(-c2c(C=O)ccc3c2OCO3)c(OC)c1OC
inactive: TK-10 > 100 µM | ACHN > 100 µM | SW-620 38.2 µM | IGROV-1 > 100 µM | DLD-1 > 100 µM | SF-539 > 100 µM | 786-0 > 100 µM | SK-OV-3 > 100 µM | A549 > 100 µM | OVCAR-4 > 100 µM | OVCAR-5 > 100 µM | LOX IMVI 54.6 µM | M19-MEL 61.4 µM | UO-31 > 100 µM | CCRF-CEM 33.8 µM

COc1ccccc1NC(=O)C1=C(C)NC(C)=C(C(=O)Nc2ccccc2OC)C1c1ccccc1[N+](=O)[O-]
inactive: TK-10 22.5 µM | ACHN 18.6 µM | IGROV-1 19.7 µM | DLD-1 16.9 µM | SF-539 19.6 µM | 786-0 17.4 µM | SK-OV-3 26.9 µM | A549 > 100 µM | OVCAR-4 18.9 µM | OVCAR-5 41 µM | LOX IMVI 15.5 µM | M19-MEL 18.5 µM | UO-31 19.4 µM | CCRF-CEM 18.9 µM

Nc1nc(N)c(-c2ccccc2)c(C(=O)Nc2ccccc2)n1
inactive: TK-10 > 100 µM | ACHN > 100 µM | SW-620 > 100 µM | IGROV-1 > 100 µM | DLD-1 > 100 µM | SF-539 > 100 µM | 786-0 > 100 µM | SK-OV-3 > 100 µM | A549 > 100 µM | OVCAR-4 > 100 µM | OVCAR-5 > 100 µM | LOX IMVI > 100 µM | M19-MEL > 100 µM | UO-31 > 100 µM | CCRF-CEM > 100 µM

Nc1ccc(C(=O)NN2C(=O)C(Cl)C2c2cc(Br)cc(Br)c2O)cc1 (configuration not stated)
inactive: TK-10 32.2 µM | ACHN 5.74 µM | SW-620 16.7 µM | IGROV-1 13.3 µM | DLD-1 13.3 µM | SF-539 12.8 µM | 786-0 8.3 µM | SK-OV-3 11.2 µM | A549 14.3 µM | OVCAR-4 10.3 µM | OVCAR-5 40.2 µM | LOX IMVI 8.85 µM | M19-MEL 11.9 µM | UO-31 3.34 µM | CCRF-CEM 5.53 µM

O=C(NCc1cccnc1)C1COc2cc(-c3cc(=O)c4ccccc4o3)ccc2O1 (configuration not stated)
inactive: TK-10 > 57.9 µM | ACHN 22.5 µM | SW-620 > 100 µM | IGROV-1 > 66.5 µM | DLD-1 > 100 µM | SF-539 3.04 µM | 786-0 7.19 µM | SK-OV-3 > 100 µM | A549 5.79 µM | OVCAR-4 55.3 µM | OVCAR-5 > 100 µM | LOX IMVI 3.38 µM | M19-MEL 3.93 µM | UO-31 > 43.9 µM | CCRF-CEM > 100 µM

CC1(CO)OC(n2cc(C(=O)NC(=O)OCc3ccccc3)c(=O)[nH]c2=O)CC1O (configuration not stated)
inactive: TK-10 > 100 µM | ACHN > 100 µM | SW-620 > 100 µM | IGROV-1 > 100 µM | DLD-1 > 100 µM | SF-539 > 100 µM | 786-0 > 100 µM | SK-OV-3 > 100 µM | A549 > 100 µM | LOX IMVI > 100 µM | M19-MEL > 100 µM | UO-31 > 100 µM | CCRF-CEM > 100 µM

CN(C)c1ccc2c(c1)C(=O)N(OS(=O)(=O)c1ccc([N+](=O)[O-])cc1)C2=O
inactive: TK-10 59 µM | ACHN 24.7 µM | SW-620 20.4 µM | IGROV-1 19.7 µM | DLD-1 24 µM | SF-539 17.6 µM | 786-0 19.3 µM | SK-OV-3 > 100 µM | A549 39.2 µM | OVCAR-4 15.7 µM | OVCAR-5 25.4 µM | M19-MEL 19 µM | UO-31 23.1 µM | CCRF-CEM 18.7 µM

From ChEMBL document CHEMBL1201862, “PubChem BioAssay data set” (2004)
